Each structure is given as a SMILES string.

The record followed here is patent US20230382910A1, “HETEROARYL COMPOUNDS FOR THE TREATMENT OF PAIN” (VERTEX PHARMACEUTICALS INCORPORATED, priority 2022, published 2023).

In this assay the target is human NaV 1.8 (Homo sapiens, UniProt Q9Y5Y9). The assay can be described thus: E-VIPR Assay Detecting and Measuring NaV Inhibition Properties. As to conditions: HEK cells expressing a truncated form of human NaV 1.8; electrical stimulation, membrane potential FRET dyes; read-out: measured IC50 value in the E-VIPR Assay. The class given is cell-based. The text has this: E-VIPR Assay Detecting and Measuring NaV Inhibition Properties
human NaV 1.8, sequence (Q9Y5Y9 126-399 limits assumed): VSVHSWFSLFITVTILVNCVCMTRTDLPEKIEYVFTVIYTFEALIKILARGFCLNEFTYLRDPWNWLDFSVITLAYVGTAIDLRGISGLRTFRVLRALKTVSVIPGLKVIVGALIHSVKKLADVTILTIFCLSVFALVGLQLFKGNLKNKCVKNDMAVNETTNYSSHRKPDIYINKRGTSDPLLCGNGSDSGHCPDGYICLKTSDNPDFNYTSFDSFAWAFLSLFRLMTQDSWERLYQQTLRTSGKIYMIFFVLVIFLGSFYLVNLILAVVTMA
human NaV 1.8, sequence (Q9Y5Y9 660-890 limits assumed): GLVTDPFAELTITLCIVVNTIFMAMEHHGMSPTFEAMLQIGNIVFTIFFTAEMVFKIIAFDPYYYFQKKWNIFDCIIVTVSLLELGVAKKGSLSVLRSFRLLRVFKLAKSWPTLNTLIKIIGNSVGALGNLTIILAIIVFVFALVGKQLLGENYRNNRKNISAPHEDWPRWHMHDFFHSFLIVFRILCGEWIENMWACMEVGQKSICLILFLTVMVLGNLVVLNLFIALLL
human NaV 1.8, sequence (Q9Y5Y9 1148-1722 limits assumed): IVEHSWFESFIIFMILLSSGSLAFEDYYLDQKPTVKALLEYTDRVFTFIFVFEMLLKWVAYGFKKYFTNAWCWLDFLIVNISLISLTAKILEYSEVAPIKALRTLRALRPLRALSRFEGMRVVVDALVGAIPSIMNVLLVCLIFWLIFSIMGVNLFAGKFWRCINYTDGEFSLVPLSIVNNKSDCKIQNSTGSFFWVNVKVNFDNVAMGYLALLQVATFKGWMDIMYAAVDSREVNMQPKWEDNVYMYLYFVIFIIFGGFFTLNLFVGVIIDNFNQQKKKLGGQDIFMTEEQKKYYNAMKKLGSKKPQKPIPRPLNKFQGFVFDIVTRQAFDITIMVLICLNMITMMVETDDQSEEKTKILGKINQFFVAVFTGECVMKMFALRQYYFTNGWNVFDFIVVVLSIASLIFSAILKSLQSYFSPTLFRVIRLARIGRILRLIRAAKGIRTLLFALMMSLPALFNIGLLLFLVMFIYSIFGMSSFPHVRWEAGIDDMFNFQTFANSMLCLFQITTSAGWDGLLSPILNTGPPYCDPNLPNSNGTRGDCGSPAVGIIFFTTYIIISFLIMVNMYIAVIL
Sodium ion channels are voltage-dependent proteins that can be activated by inducing membrane voltage changes by applying electric fields. The electrical stimulation instrument and methods of use, referred to as E-VIPR, are described in International Publication No. WO 2002/008748 A3 and C.-J. Huang et al. Characterization of voltage-gated sodium channel blockers by electrical stimulation and fluorescence detection of membrane potential, 24 Nature Biotech. 439-46 (2006), both of which are incorporated by reference in their entirety. The instrument comprises a microtiter plate handler, an optical system for exciting the coumarin dye while simultaneously recording the coumarin and oxonol emissions, a waveform generator, a current- or voltage-controlled amplifier, and parallel electrode pairs that are inserted into assay plate wells. Under integrated computer control, this instrument passes user-programmed electrical stimulus protocols to cells within the wells of the microtiter plate.
16-20 hours prior to running the assay on E-VIPR, HEK cells expressing a truncated form of human NaV 1.8 with full channel activity were seeded into microtiter 384-well plates, pre-coated with matrigel, at a density of 25,000 cells per well. 2.5-5% KIR2.1 BacMam virus was added to the final cell suspension before seeding into cell plates. HEK cells were grown in Dulbecco's Modified Eagle's Medium (DMEM) supplemented with 10% FBS (Fetal Bovine Serum, qualified; Sigma #F4135), 1% NEAA (Non-Essential Amino Acids, Gibco #11140), 1% HEPES (Gibco #15630), 1% Pen-Strep (Penicillin-Streptomycin; Gibco #15140) and 5 μg/ml Blasticidin (Gibco #R210-01). Cells were expanded in 5-layer CellSTACK culture chambers or cell culture flasks with vented caps, with 90-95% humidity and 5% CO2.
Compound Loading Buffer (2× concentration): Na/TMA Cl Bath1 Buffer containing HS (omitted in experiments run in the absence of human serum (HS)) 50%, VABSC-1 1 mM, BSA 0.2 mg/ml (in Bath-1), KCl 9 mM, DMSO 0.625%.
Assay Protocol (7 Key Steps):
1) To reach the final concentration in each well, 375 nL of each compound was pre-spotted (in neat DMSO) into polypropylene compound plates at 240× desired final concentration from an intermediate stock concentration of 0.075 mM, in an 11-point dose response, 3-fold dilution, resulting in a top dose of 300 nM final concentration in the cell plate. Vehicle control (neat DMSO), and positive control (an established NaV1.8 inhibitor, 25 μM final in assay in DMSO) were added manually to the outermost columns of each plate respectively. The compound plate was backfilled with 45 μL per well of Compound Loading Buffer resulting in a 240-fold dilution of compound following a 1:1 transfer of compound into the cell plate (see Step 6). Final DMSO concentration for all wells in the assay was 0.625% (0.75% DMSO was supplemented to the Compound Loading Buffer for a final DMSO concentration of 0.625%). This assay dilution protocol was adjusted to enable a higher dose range to be tested in the presence of HS or if the final assay volume was altered.
2) Hexyl Dye Solution was prepared.
3) Cell plates were prepared. On the day of the assay, the media was aspirated, and the cells were washed three times with 80 μL of Bath-1 buffer, maintaining 25 μL residual volume in each well.
4) 25 μL per well of Hexyl Dye Solution was dispensed into the cell plates. The cells were incubated for 20 minutes at room temperature or ambient conditions in darkness.
5) 45 μL per well of Compound Loading Buffer was dispensed into compound plates.
6) The cell plates were washed three times with 80 μL per well of Bath-1 Buffer, leaving 25 µL of residual volume. Then 25 μL per well from compound plate was transferred to each cell plate. The mixture was incubated for 30 minutes at room temperature/ambient conditions. […]
Consider `Cc1cc(C(C)(C)C)ccc1-c1cc(=O)c2nc(OCCN(C)C)ccc2[nH]1` [Compound 304, 2-(4-tert-butyl-2-methyl-phenyl)-6-[2-(dimethylamino)ethoxy]-1H-1,5-naphthyridin-4-one], for which the half-inhibitory concentration (IC50) (in general, the concentration needed to halve the response being measured) is 0.5 to 2 µM.
For `CCc1cc(-c2cc(=O)c3c(C(N)=O)nccc3[nH]2)c(C)cc1C` [Compound 224, 2-(5-ethyl-2,4-dimethyl-phenyl)-4-oxo-1H-1,6-naphthyridine-5-carboxamide] the value was 0.5 to 2 µM.
In the case of `CC(C)CN(CC(C)C)c1nc2ccccc2cc1-c1cc(=O)c2c(C(N)=O)nccc2[nH]1` [Compound 351, 2-[2-(diisobutylamino)-3-quinolyl]-4-oxo-1H-1,6-naphthyridine-5-carboxamide], the 50% inhibitory concentration (IC50) lay within 2 to 5 µM.
As for `CCOc1cc(C(F)(F)F)ccc1-c1cc(=O)c2ccccc2[nH]1` [Compound 28, 2-[2-ethoxy-4-(trifluoromethyl)phenyl]-1H-quinolin-4-one], the IC50 lay within 2 to 5 µM.
For `CC(C)(C)c1ccc(-c2cc(=O)c3ccccc3[nH]2)cc1` [Compound 5, 2-(4-tert-butylphenyl)-1H-quinolin-4-one] the value was 0.5 to 2 µM.
For `Cc1ccc(C)c(-c2cc(=O)c3ccccc3[nH]2)c1` [Compound 52, 2-(2,5-dimethylphenyl)-1H-quinolin-4-one] the value was 2 to 5 µM.
For `CCOC(=O)c1ccc(-c2cc(=O)c3ccccc3[nH]2)c(C)c1` [Compound 166, ethyl 3-methyl-4-(4-oxo-1H-quinolin-2-yl)benzoate] the value was 2 to 5 µM; for `Cn1nc(C(C)(C)C)cc1-c1cc(=O)c2cc(F)ccc2[nH]1` [Compound 417, 2-(5-tert-butyl-2-methyl-pyrazol-3-yl)-6-fluoro-1H-quinolin-4-one], 0.5 to 2 µM; for `Cc1c(-c2cc(=O)c3ccccc3[nH]2)ccc2c1CCC2` [Compound 12, 2-(4-methylindan-5-yl)-1H-quinolin-4-one], 0.5 to 2 µM.
On to `Cc1cc(-c2cc(=O)c3c(=O)[nH]ccc3[nH]2)c(C)nc1C(F)(F)F` [Compound 200, 2-[2,5-dimethyl-6-(trifluoromethyl)-3-pyridyl]-1,6-dihydro-1,6-naphthyridine-4,5-dione], for which the IC50 was in the range of 0.5 to 2 µM.
For `Cc1nc(-c2ccccc2)c(Cl)cc1-c1cc(=O)c2c(C(N)=O)nccc2[nH]1` [Compound 273, 2-(5-chloro-2-methyl-6-phenyl-3-pyridyl)-4-oxo-1H-1,6-naphthyridine-5-carboxamide] the value was 0.5 to 2 µM.
Turning to `COc1cc(C(F)(F)F)ccc1-c1cc(=O)c2ccccc2[nH]1` [Compound 19, 2-[2-methoxy-4-(trifluoromethyl)phenyl]-1H-quinolin-4-one], the half-maximal inhibitory concentration (IC50) fell in the range of 2 to 5 µM.
For `Cc1cc(Cl)c(Cl)cc1-c1cc(=O)c2cnccc2[nH]1` [Compound 118, 2-(4,5-dichloro-2-methyl-phenyl)-1H-1,6-naphthyridin-4-one] the value was 0.5 to 2 µM; for `Cc1cc(OC(F)(F)F)ccc1-c1cc(=O)c2ccccc2[nH]1` [Compound 54, 2-[2-methyl-4-(trifluoromethoxy)phenyl]-1H-quinolin-4-one], 0.5 to 2 µM; for `COc1cc(C)c(C)cc1-c1cc(=O)c2ccccc2[nH]1` [Compound 72, 2-(2-methoxy-4,5-dimethyl-phenyl)-1H-quinolin-4-one], 2 to 5 µM.
For `Cc1nc(C(C)(C)C)c(C)nc1-c1cc(=O)c2c(C(N)=O)nccc2[nH]1` [Compound 246, 2-(5-tert-butyl-3,6-dimethyl-pyrazin-2-yl)-4-oxo-1H-1,6-naphthyridine-5-carboxamide] the value was 0.5 to 2 µM; for `Cc1cc(C(C)(CO)C(F)(F)F)c(Cl)cc1-c1cc(=O)c2c(C(N)=O)nccc2[nH]1` (single isomer, unassigned) [Compound 365], 0.5 to 2 µM.
In the case of `COC(C)(C)c1ccc(-c2cc(=O)c3ccccc3[nH]2)c(C)c1` [Compound 180, 2-[4-(1-methoxy-1-methyl-ethyl)-2-methyl-phenyl]-1H-quinolin-4-one], the IC50 was 0.5 to 2 µM.
For `Cc1ccc(-c2cc(=O)c3ccccc3[nH]2)c(C)c1Cl` [Compound 74, 2-(3-chloro-2,4-dimethyl-phenyl)-1H-quinolin-4-one] the value was 0.5 to 2 µM; for `Cc1cc(C(C)(C)CO)c(Cl)cc1-c1cc(=O)c2c(C(N)=O)nccc2[nH]1` [Compound 356, 2-[5-chloro-4-(2-hydroxy-1,1-dimethyl-ethyl)-2-methyl-phenyl]-4-oxo-1H-1,6-naphthyridine-5-carboxamide], 2 to 5 µM.
For `CCOC(=O)c1nc(C)c(-c2nccc3[nH]c(-c4cc(Cl)c(C(C)(C)C)cc4C)cc(=O)c23)o1` [Compound 390, ethyl 5-[2-(4-tert-butyl-5-chloro-2-methyl-phenyl)-4-oxo-1H-1,6-naphthyridin-5-yl]-4-methyl-oxazole-2-carboxylate] the value was 0.5 to 2 µM; for `CC(C)(C)c1cc(F)c(-c2cc(O)c3c(C(N)=O)nccc3n2)c(F)c1` [Compound 247, 2-(4-(tert-butyl)-2,6-difluorophenyl)-4-hydroxy-1,6-naphthyridine-5-carboxamide], 0.5 to 2 µM.
